Like-named read-outs stand apart in the source and are kept apart here.
Key:
MES-SA cells = test: MTT growth inhibition, MES-SA uterine sarcoma; type: cell-based; settings: Homo sapiens; parent MES-SA cells at start of selection of doxorubicin-resistant cells; read-out: GI50 concentration
Protocol: (§1) Human cancer cell lines were obtained from the American Type Culture Collection (ATCC, Manassas, Va., USA), the European Collection of Cell Culture (ECACC, Salisbury, UK), and the Deutsche Sammlung von Mikroorganismen und Zellkulturen (DSMZ, Braunschweig, Germany). Human cervical adenocarcinoma HeLa cells were cultured in DMEM supplemented with 10% fetal bovine serum (FBS). Human mammary carcinoma MCF-7 cells were cultured in RPMI supplemented with 10% FBS. The U87 cells (ATCC HTB-14) were cultured in DMEM culture medium, while the A549 cells (DSMZ ACC107) were cultured in RPMI culture medium supplemented with 10% heat-inactivated FBS. The GBM Hs683 (ATCC HTB-138) and the T98G (ATCC CRL-1690) cell lines were cultivated in DMEM supplemented with 10% FBS. The GBM U251 cells (ECACC code 09063001) were cultured in 10% MEM. The human uterine sarcoma MES-SA and MES-SA/Dx5 cells were cultured in RPMI-1640 medium supplemented with 10% FBS with MES SA/Dx5 maintained in the presence of 500 nM Doxorubicin (Sigma™). The U373 glioblastoma cells (ECACC 08061901) were cultured in RPMI culture medium supplemented with 10% heat-inactivated FBS.
All compounds were dissolved in DMSO at a concentration of either 100 mM or 50 mM prior to cell treatment. The cells were trypsinized and seeded at various cell concentrations depending on the cell type. The cells were grown for 24 h to 72 h, treated with compounds at concentrations ranging from 0.001 to 100 μM, and incubated for 48, 72, or 96 h in 100 or 200 μL media depending on the cell line used. Cells treated with 0.1% DMSO were used as a negative control, and cells treated with 1 μM phenyl arsine oxide (PAO) were used as a positive control. […]
Drug-resistant cell lines (i.e., glioma: Hs683, U373, U251, U87, T98G; lung cancer: A549, H2073; uterine carcinoma: MES-SA/Dx5) were complemented with drug-sensitive cell lines, H1993 lung cancer and MES-SA uterine cancer, which were used as controls. […] The GI50 values were calculated after 48-96 hours of treatment with the indicated compounds in replicate using the MTT growth assay.

U373 glioblastoma cells = test: MTT growth inhibition, U373 glioma; type: cell-based, human
Protocol: as §1
(§2) All compounds were dissolved in DMSO at a concentration of either 100 mM or 50 mM prior to cell treatment. The cells were trypsinized and seeded at various cell concentrations depending on the cell type. The cells were grown for 24 h to 72 h, treated with compounds at concentrations ranging from 0.001 to 100 μM, and incubated for 48, 72, or 96 h in 100 or 200 μL media depending on the cell line used. Cells treated with 0.1% DMSO were used as a negative control, and cells treated with 1 μM phenyl arsine oxide (PAO) were used as a positive control.
(§3) Compound 4l was evaluated for in vitro growth inhibition against a panel of cancer cell lines, including U373, U251, U87, T98G, human GBM, and A549 NSCLC. […] Compound 4l was also evaluated for in vitro growth inhibition against the apoptosis-sensitive tumor model Hs683 anaplastic oligodendroglioma as a reference.
(§4) Due to their high potencies, compounds 5l and 5g were used to determine the effects of the compounds on drug-resistant tumor cells. Drug-resistant cell lines (i.e., glioma: Hs683, U373, U251, U87, T98G; lung cancer: A549, H2073; uterine carcinoma: MES-SA/Dx5) were complemented with drug-sensitive cell lines, H1993 lung cancer and MES-SA uterine cancer, which were used as controls. Bulbispermine and paclitaxel were also used as controls. The GI50 values were calculated after 48-96 hours of treatment with the indicated compounds in replicate using the MTT growth assay.

U251 cells = test: MTT growth inhibition, U251 glioma; type: cell-based, human
Protocol: as §1, §2, §3, §4

T98G cells = test: MTT growth inhibition, T98G glioma; type: cell-based, human
Protocol: as §1, §2, §3, §4

Hs683 cells = test: MTT growth inhibition, Hs683 glioma; type: cell-based, human
Protocol: as §1, §2, §3, §4

U87 cells = test: MTT growth inhibition, U87 glioma; type: cell-based, human
Protocol: as §1, §2, §3, §4

GBM 090909 cells = test: MTT growth inhibition, primary GBM-derived neurosphere culture GBM 090909; type: cell-based; settings: Homo sapiens, Table 3, 48-96 h treatment, read-out: GI50 in vitro values, glioma GBM 090909
Protocol: (§5) Cell culture media were supplemented with 4 mM glutamine (Lonza code BE17-605E), 100 μg/mL gentamicin (Lonza code 17-5182), and penicillin-streptomycin (200 units/ml and 200 μg/ml) (Lonza code 17-602E). Primary GBM-derived neurosphere cultures from a patient undergoing surgical debulking were established using previously described methods. Briefly, resected tumor tissue was minced with a sterile scalpel and dissociated in 3 mL of neurobasal (NB) media containing 100 U/mL of collagenase (Life Technologies™) for 30 minutes at 37° C. Dissociated tissue was then vortexed and filtered using a sterile 70 um nylon Falcon™ cell strainer (Corning™). […]
as §3

GBM 031810 cells = test: MTT growth inhibition, primary GBM-derived neurosphere culture GBM 031810; type: cell-based; settings: Homo sapiens, Table 3, 48-96 h treatment, read-out: GI50 in vitro values, glioma GBM 031810
Protocol: as §5, §3

Q: How did the GI50 (MES-SA cells) turn out when `COc1cccc2c1C(=O)c1c(O)c3c(c(O)c1C2=O)C[C@@](O)(C(=O)CO)C[C@@H]3O[C@H]1C[C@H](N)[C@H](O)[C@H](C)O1` [DOX, doxorubicin, reference compound] was run?
A: The GI50 was 0.1 µM.

Q: Which results are given for `O[C@H]1C=C[C@@]23c4cc5c(cc4CN(C[C@@H]2O)[C@H]3C1)OCO5` [bulbispermine, reference compound]?
A: GI50 (U373 glioblastoma cells; Table 3, 48-96 h treatment, read-out: GI50 in vitro values, glioma U373): 53 µM; GI50 (U373 glioblastoma cells; Table 5, 48-96 hours of treatment, read-out: GI50, Glioma U373): 53 µM; GI50 (U251 cells; Table 3, 48-96 h treatment, read-out: GI50 in vitro values, glioma U251): 41 µM; GI50 (U251 cells; Table 5, 48-96 hours of treatment, read-out: GI50, Glioma U251): 41 µM; GI50 (T98G cells; Table 3, 48-96 h treatment, read-out: GI50 in vitro values, glioma T98G): 99 µM; GI50 (T98G cells; Table 5, 48-96 hours of treatment, read-out: GI50, Glioma T98G): 99 µM; GI50 (Hs683 cells; Table 3, 48-96 h treatment, read-out: GI50 in vitro values, glioma Hs683): 27 µM; GI50 (Hs683 cells; Table 5, 48-96 hours of treatment, read-out: GI50, Glioma Hs683): 27 µM; GI50 (U87 cells; Table 3, 48-96 h treatment, read-out: GI50 in vitro values, glioma U87): 38 µM; GI50 (U87 cells; Table 5, 48-96 hours of treatment, read-out: GI50, Glioma U87): 38 µM

Q: Which results are given for `Cn1nnc2c(C(N)=O)ncn2c1=O` [TMZ, temozolomide, reference compound]?
A: GI50 (GBM 090909 cells): 50 µM; GI50 (GBM 031810 cells): > 1000 µM
